Legend:
IKZF3 = biological target: T1, IKZF3 (Homo sapiens, UniProt Q96SW2+Q9UKT9); assay: Western blot, degradation of substrate protein in hPBMCs; format: cell-based
T1 construct: effects of the compounds of the present disclosure on the expression of target proteins in cells; endogenous in cells; host or cells: human PBMCs (Milecell Biotechnologies)
Description: (§1) Conventional Western blot assay was performed to evaluate the effects of the compounds of the present disclosure on the expression of target proteins in cells. • (1) Cell Seeding and Protein Harvesting: Human peripheral blood mononuclear cells (hPBMCs) at a density of 1×10^6 cells/mL were thawed according to the PBMC Recovery Protocol (Milecell Biotechnologies Inc, Shanghai). […] After 24 hours of compounds treatment, cells were harvested and lysed in RIPA protein lysate containing protease inhibitors on ice for 30 min, followed by centrifugation. The supernatant was aspirated as the extracted total cell protein. The protein concentration of the supernatant was determined using the conventional BCA (Bicinchoninic Acid) assay. • (2) To the collected supernatant, 5X SDS sample loading buffer was added, followed by denaturation at 95°C for 5 minutes. The denatured samples were then separated by SDS-PAGE electrophoresis on a polyacrylamide gel, transferred onto a nitrocellulose membrane (0.45 µm NC membrane), blocked with blocking buffer at room temperature for 1 hour, and subjected to antibody incubation and development procedures according to the antibody manufacturer's instructions (Cell Signaling Technology Company).
(§2) Half-Maximal Degradation Concentration value (the drug concentration required for degrading proteins by 50%, abbreviated as DC50) reads method: comparing the grayscale values of Western blot bands from drug-treated samples with those from blank DMSO-treated controls, and identifying the drug concentration range at which the grayscale value is half that of the DMSO-treated control bands.
(§3) DC50 values can be calculated using ImageJ software to measure grayscale values of Western blot bands from drug-treated samples. The concentration-response curve is fitted to estimate the drug concentration corresponding to half the grayscale value.
(§4) Target protein remaining (%) refers to the percentage of target protein remaining in cells after treatment with protein degrader compounds.
(§5) Calculation method for target protein remaining (%): Use ImageJ software to measure grayscale values of Western blot bands from drug (protein degrader)-treated samples. The grayscale value of drug-treated bands is divided by that of internal control protein bands, and the resulting quotient is normalized to obtain the relative percentage of remaining target protein after protein degrader treatment.
(§6) Target protein degradation rate (%) = 1−target protein remaining (%). [formula]

IKZF2 = biological target: T2, IKZF2 (Homo sapiens, UniProt Q96SW2+Q9UKS7); assay: as above; format: cell-based
T2 construct: effects of the compounds of the present disclosure on the expression of target proteins in cells; endogenous in cells; host or cells: human PBMCs (Milecell Biotechnologies)
T2 sequence (Q9UKS7 whole entry): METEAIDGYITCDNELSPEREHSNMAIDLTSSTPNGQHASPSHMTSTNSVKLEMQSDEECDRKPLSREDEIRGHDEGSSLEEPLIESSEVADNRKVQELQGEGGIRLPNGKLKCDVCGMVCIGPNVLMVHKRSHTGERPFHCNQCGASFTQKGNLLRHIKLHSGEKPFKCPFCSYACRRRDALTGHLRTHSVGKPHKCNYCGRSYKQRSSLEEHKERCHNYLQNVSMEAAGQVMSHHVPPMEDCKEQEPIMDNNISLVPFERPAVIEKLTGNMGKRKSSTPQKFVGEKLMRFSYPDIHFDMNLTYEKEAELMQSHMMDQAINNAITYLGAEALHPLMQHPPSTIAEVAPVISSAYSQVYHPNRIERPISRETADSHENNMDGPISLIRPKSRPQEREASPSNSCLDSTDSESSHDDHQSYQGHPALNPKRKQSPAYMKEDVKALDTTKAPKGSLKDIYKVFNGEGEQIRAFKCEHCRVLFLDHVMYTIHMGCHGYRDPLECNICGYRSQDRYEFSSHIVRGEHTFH
T2 sequence (Q96SW2 whole entry): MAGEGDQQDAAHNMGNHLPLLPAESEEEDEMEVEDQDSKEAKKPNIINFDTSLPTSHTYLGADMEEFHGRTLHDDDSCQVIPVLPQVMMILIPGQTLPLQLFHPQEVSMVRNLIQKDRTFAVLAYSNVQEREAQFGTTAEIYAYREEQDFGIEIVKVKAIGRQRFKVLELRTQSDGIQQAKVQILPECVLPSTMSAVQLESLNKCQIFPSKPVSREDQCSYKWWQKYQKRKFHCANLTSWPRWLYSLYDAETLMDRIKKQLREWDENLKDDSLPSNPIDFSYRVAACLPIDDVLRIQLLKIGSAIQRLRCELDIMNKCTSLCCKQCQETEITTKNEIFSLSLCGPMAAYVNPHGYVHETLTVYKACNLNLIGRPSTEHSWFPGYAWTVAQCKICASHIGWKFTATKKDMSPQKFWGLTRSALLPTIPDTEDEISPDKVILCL
T2 sequence (Q16531 whole entry partner): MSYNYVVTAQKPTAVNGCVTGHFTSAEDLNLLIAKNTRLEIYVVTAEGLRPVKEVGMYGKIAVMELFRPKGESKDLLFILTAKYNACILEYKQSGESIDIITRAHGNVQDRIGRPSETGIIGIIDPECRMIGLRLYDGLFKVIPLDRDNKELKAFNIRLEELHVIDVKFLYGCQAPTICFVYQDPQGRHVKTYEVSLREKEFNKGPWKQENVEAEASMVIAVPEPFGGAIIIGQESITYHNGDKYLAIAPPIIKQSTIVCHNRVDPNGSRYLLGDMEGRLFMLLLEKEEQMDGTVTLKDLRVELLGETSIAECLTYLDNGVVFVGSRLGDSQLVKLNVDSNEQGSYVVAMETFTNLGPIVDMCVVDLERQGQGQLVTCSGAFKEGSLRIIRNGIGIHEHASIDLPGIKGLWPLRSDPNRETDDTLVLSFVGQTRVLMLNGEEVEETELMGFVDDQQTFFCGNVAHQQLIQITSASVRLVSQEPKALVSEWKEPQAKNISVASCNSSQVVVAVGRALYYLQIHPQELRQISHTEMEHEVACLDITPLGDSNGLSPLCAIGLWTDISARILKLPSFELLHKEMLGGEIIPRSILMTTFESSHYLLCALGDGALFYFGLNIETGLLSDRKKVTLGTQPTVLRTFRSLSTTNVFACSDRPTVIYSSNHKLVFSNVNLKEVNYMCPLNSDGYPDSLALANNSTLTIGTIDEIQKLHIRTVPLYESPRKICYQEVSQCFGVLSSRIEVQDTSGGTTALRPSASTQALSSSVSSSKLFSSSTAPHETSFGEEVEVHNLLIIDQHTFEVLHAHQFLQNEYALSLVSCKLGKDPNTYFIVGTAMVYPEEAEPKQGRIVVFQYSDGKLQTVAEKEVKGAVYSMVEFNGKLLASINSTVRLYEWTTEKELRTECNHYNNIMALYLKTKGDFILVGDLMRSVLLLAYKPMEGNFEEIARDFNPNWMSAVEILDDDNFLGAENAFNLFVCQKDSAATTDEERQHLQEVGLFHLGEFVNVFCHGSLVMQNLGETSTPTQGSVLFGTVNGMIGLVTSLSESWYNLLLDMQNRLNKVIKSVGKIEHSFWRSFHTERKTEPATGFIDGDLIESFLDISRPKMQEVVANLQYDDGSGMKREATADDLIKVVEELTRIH
Description: as §1, §2, §3, §4, §5, §6

WEE1 = biological target: T3, WEE1 (Homo sapiens, UniProt P30291+Q96SW2); assay: as above; format: cell-based
T3 construct: effects of the compounds of the present disclosure on the expression of target proteins in cells; endogenous in cells; host or cells: human PBMCs (Milecell Biotechnologies)
T3 sequence (P30291 whole entry): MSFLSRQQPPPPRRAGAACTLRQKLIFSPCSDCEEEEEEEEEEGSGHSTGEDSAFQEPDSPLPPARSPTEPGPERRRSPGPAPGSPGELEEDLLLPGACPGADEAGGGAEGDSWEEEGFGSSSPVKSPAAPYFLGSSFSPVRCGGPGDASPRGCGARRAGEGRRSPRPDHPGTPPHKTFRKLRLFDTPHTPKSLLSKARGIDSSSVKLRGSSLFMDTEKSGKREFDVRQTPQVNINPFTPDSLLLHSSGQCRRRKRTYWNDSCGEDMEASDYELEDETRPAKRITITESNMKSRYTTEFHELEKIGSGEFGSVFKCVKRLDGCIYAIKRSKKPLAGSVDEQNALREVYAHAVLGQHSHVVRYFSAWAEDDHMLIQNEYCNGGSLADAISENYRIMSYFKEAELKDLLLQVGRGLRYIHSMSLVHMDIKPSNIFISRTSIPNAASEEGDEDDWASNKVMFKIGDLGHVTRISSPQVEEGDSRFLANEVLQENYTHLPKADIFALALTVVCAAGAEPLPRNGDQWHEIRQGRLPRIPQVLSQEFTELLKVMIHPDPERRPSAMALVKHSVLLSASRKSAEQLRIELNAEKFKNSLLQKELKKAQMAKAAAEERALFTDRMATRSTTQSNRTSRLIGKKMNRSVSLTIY
T3 sequence (Q96SW2 whole entry): as the sequence (Q96SW2 whole entry) above
T3 sequence (Q16531 whole entry partner): as the sequence (Q16531 whole entry partner) above
Description: as §1, §2, §3, §4, §5, §6

CK1α = biological target: T4, CK1α (Homo sapiens, UniProt P48729+Q96SW2); assay: as above; format: cell-based
T4 construct: effects of the compounds of the present disclosure on the expression of target proteins in cells; endogenous in cells; host or cells: human PBMCs (Milecell Biotechnologies)
T4 sequence (P48729 whole entry): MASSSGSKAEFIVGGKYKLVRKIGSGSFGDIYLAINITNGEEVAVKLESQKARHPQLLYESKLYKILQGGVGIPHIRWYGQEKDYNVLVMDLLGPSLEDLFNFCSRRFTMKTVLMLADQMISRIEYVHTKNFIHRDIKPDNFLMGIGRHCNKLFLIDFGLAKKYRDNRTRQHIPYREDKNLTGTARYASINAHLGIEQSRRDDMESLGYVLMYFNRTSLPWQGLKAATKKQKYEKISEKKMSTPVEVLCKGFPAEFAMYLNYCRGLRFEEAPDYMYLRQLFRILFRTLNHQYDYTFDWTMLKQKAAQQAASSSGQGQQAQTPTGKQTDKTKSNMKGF
T4 sequence (Q96SW2 whole entry): as the sequence (Q96SW2 whole entry) above
T4 sequence (Q16531 whole entry partner): as the sequence (Q16531 whole entry partner) above
Description: as §1, §2, §3, §4, §5, §6

IKZF1 = biological target: T5, IKZF1 (Homo sapiens, UniProt Q13422+Q96SW2); assay: as above; format: cell-based
T5 construct: effects of the compounds of the present disclosure on the expression of target proteins in cells; endogenous in cells; host or cells: human PBMCs (Milecell Biotechnologies)
T5 sequence (Q13422 whole entry): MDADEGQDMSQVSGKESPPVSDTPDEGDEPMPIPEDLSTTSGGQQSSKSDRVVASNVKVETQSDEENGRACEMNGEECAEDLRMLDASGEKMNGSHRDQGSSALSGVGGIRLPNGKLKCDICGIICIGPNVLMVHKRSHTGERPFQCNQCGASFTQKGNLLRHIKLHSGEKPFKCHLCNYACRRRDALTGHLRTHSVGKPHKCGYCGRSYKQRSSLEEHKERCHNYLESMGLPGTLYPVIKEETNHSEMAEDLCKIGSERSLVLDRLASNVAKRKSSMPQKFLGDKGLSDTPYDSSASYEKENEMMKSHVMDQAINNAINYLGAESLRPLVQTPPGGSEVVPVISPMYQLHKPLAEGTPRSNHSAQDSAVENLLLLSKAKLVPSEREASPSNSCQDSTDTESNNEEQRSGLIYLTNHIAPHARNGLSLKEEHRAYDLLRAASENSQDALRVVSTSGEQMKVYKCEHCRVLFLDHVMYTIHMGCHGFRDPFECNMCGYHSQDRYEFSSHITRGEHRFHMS
T5 sequence (Q96SW2 whole entry): as the sequence (Q96SW2 whole entry) above
T5 sequence (Q16531 whole entry partner): as the sequence (Q16531 whole entry partner) above
Description: as §1, §2, §3, §4, §5, §6

GSPT1 = assay: as above; format: cell-based, Human
Description: as §1, §2, §3, §4, §5, §6

[1] = biological target: T6, human Cereblon WT GST-tagged protein (Homo sapiens, UniProt Q96SW2); assay: CRBN-binding affinity, HTRF (CEREBLON BINDING kit); conditions: for inhibition at 0.5 µM: read-out: Inhibition Rate at 0.5 µM (%); for inhibition at 2 µM: read-out: Inhibition Rate at 2 µM (%)
T6 construct: purchased CISBIO 64BDCRBNPEH
T6 sequence (Q96SW2 whole entry): as the sequence (Q96SW2 whole entry) above

[2] = Western blot, 24 hours of compound treatment, compounds tested at 50 nM and 500 nM (concentration for the table not stated)
[3] = 24 hours treatment, compounds at 50 nM and 500 nM (concentration behind the class not stated)

T1 sequence (Q9UKT9 whole entry): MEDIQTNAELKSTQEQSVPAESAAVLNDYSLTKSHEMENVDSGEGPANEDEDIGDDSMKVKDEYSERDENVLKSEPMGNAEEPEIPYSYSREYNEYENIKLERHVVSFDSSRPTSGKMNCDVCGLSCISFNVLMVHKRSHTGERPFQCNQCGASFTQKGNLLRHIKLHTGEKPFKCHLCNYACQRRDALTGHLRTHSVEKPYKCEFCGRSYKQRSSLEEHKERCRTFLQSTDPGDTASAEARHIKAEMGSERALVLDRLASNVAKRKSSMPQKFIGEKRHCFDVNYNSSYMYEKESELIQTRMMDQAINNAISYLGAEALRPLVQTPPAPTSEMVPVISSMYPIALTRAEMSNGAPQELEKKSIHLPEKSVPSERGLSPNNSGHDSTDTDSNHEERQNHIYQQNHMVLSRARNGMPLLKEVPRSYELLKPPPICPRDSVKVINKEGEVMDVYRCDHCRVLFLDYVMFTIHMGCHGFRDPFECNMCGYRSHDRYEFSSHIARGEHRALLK
T1 sequence (Q96SW2 whole entry): as the sequence (Q96SW2 whole entry) above
T1 sequence (Q16531 whole entry partner): as the sequence (Q16531 whole entry partner) above

Structure (SMILES)	IKZF3 substrate protein remaining % (IKZF3; [2])	IKZF2 substrate protein remaining % (IKZF2; [2])	Wee1 substrate protein remaining % (WEE1; [2])	CK1α substrate protein remaining % (CK1α; [2])	IKZF 1 substrate protein remaining % (IKZF1; [2])	GSPT1 substrate protein remaining % (GSPT1; [2])	inhibition at 0.5 µM [1] [%]	inhibition at 2 µM [1] [%]	IKZF3 substrate protein remaining % (IKZF3; [3])	IKZF2 substrate protein remaining % (IKZF2; [3])	Wee1 substrate protein remaining % (WEE1; [3])	CK1α substrate protein remaining % (CK1α; [3])	IKZF 1 substrate protein remaining % (IKZF1; [3])	GSPT1 substrate protein remaining % (GSPT1; [3])
O=C1CCC(N2Cc3c(CN4CCC(c5n[nH]c6cc(F)ccc56)CC4)cccc3C2=S)C(=O)N1 (stereo not drawn) [GT-08849, 3-(4-((4-(6-fluoro-1H-indazol-3-yl)piperidin-1-yl)methyl)-1-thioxoisoindolin-2-yl)piperidine-2,6-dione]	B (80%< substrate protein remaining %≤ 100%)	B (80%< substrate protein remaining %≤ 100%)	A (0% ≤ substrate protein remaining % ≤ 80%)	B (80%< substrate protein remaining %≤ 100%)	B (80%< substrate protein remaining %≤ 100%)	A (0% ≤ substrate protein remaining % ≤ 80%)	60 to 80	80 to 100						
O=C1CCC(N2Cc3cc(CN4CCCN(C(c5ccccc5)c5ccccc5)CC4)ccc3C2=S)C(=O)N1 (stereo not drawn) [GT-07848, 3-(5-((4-benzhydryl-1,4-diazepan-1-yl)methyl)-1-thioxoisoindolin-2-yl)piperidine-2,6-dione]	A (0% ≤ substrate protein remaining % ≤ 80%)	A (0% ≤ substrate protein remaining % ≤ 80%)	B (80%< substrate protein remaining %≤ 100%)	B (80%< substrate protein remaining %≤ 100%)	B (80%< substrate protein remaining %≤ 100%)	A (0% ≤ substrate protein remaining % ≤ 80%)	30 to 40	80 to 100						
O=C1CCC(N2Cc3cc(CN4CCN(c5ncccn5)CC4)ccc3C2=S)C(=O)N1 (stereo not drawn) [GT-09252, 3-(5-((4-(pyrimidin-2-yl)piperazin-1-yl)methyl)-1-thioxoisoindolin-2-yl)piperidine-2,6-dione]							60 to 80	80 to 100	B (80%< substrate protein remaining %≤ 100%)	A (0% ≤ substrate protein remaining % ≤ 80%)	B (80%< substrate protein remaining %≤ 100%)	B (80%< substrate protein remaining %≤ 100%)	B (80%< substrate protein remaining %≤ 100%)	B (80%< substrate protein remaining %≤ 100%)
O=C1CCC(N2Cc3cc(CN4CCN(c5ccncc5Cl)CC4)ccc3C2=S)C(=O)N1 (stereo not drawn) [GT-09238, 3-(5-((4-(3-chloropyridin-4-yl)piperazin-1-yl)methyl)-1-thioxoisoindolin-2-yl)piperidine-2,6-dione]	A (0% ≤ substrate protein remaining % ≤ 80%)	A (0% ≤ substrate protein remaining % ≤ 80%)	B (80%< substrate protein remaining %≤ 100%)	A (0% ≤ substrate protein remaining % ≤ 80%)	B (80%< substrate protein remaining %≤ 100%)	A (0% ≤ substrate protein remaining % ≤ 80%)	60 to 80	80 to 100						
O=C1CCC(N2Cc3c(CN4CCN(c5cc(F)cc(F)c5)CC4)cccc3C2=S)C(=O)N1 (stereo not drawn) [GT-08632, 3-(4-((4-(3,5-difluorophenyl)piperazin-1-yl)methyl)-1-thioxoisoindolin-2-yl)piperidine-2,6-dione]	B (80%< substrate protein remaining %≤ 100%)	B (80%< substrate protein remaining %≤ 100%)	A (0% ≤ substrate protein remaining % ≤ 80%)	B (80%< substrate protein remaining %≤ 100%)	B (80%< substrate protein remaining %≤ 100%)	B (80%< substrate protein remaining %≤ 100%)	60 to 80	80 to 100						
O=C1CCC(N2Cc3c(CN4CCC(c5cccc(F)c5F)CC4)cccc3C2=S)C(=O)N1 (stereo not drawn) [GT-08322, 3-(4-((4-(2,3-difluorophenyl)piperidin-1-yl)methyl)-1-thioxoisoindolin-2-yl)piperidine-2,6-dione]							30 to 40	53 to 60	B (80%< substrate protein remaining %≤ 100%)	A (0% ≤ substrate protein remaining % ≤ 80%)	A (0% ≤ substrate protein remaining % ≤ 80%)	A (0% ≤ substrate protein remaining % ≤ 80%)	B (80%< substrate protein remaining %≤ 100%)	A (0% ≤ substrate protein remaining % ≤ 80%)
Cc1csc2ncnc(C3=CCN(Cc4cccc5c4CN(C4CCC(=O)NC4=O)C5=S)CC3)c12 (stereo not drawn) [GT-08938, 3-(4-((4-(5-methylthieno[2,3-d]pyrimidin-4-yl)-3,6-dihydropyridin-1(2H)-yl)methyl)-1-thioxoisoindolin-2-yl)piperidine-2,6-dione]									B (80%< substrate protein remaining %≤ 100%)	B (80%< substrate protein remaining %≤ 100%)	A (0% ≤ substrate protein remaining % ≤ 80%)	B (80%< substrate protein remaining %≤ 100%)	B (80%< substrate protein remaining %≤ 100%)	B (80%< substrate protein remaining %≤ 100%)
O=C1CCC(N2Cc3c(CN4CCC(c5nccc(Cl)c5Cl)CC4)cccc3C2=S)C(=O)N1 (stereo not drawn) [GT-08457, 3-(4-((4-(3,4-dichloropyridin-2-yl)piperidin-1-yl)methyl)-1-thioxoisoindolin-2-yl)piperidine-2,6-dione]	B (80%< substrate protein remaining %≤ 100%)	B (80%< substrate protein remaining %≤ 100%)	A (0% ≤ substrate protein remaining % ≤ 80%)	B (80%< substrate protein remaining %≤ 100%)	B (80%< substrate protein remaining %≤ 100%)	B (80%< substrate protein remaining %≤ 100%)								
O=C1CCC(N2Cc3c(CN4CCN(c5ccc(C(F)(F)F)cn5)CC4)cccc3C2=S)C(=O)N1 (stereo not drawn) [GT-08702, 3-(1-thioxo-4-((4-(5-(trifluoromethyl)pyridin-2-yl)piperazin-1-yl)methyl)isoindolin-2-yl)piperidine-2,6-dione]	B (80%< substrate protein remaining %≤ 100%)	B (80%< substrate protein remaining %≤ 100%)	A (0% ≤ substrate protein remaining % ≤ 80%)	B (80%< substrate protein remaining %≤ 100%)	B (80%< substrate protein remaining %≤ 100%)	B (80%< substrate protein remaining %≤ 100%)								
CC(C)c1cc2c(N3CCN(Cc4cccc5c4CN(C4CCC(=O)NC4=O)C5=S)CC3)ncnc2s1 (stereo not drawn) [GT-08915, 3-(4-((4-(6-isopropylthieno[2,3-d]pyrimidin-4-yl)piperazin-1-yl)methyl)-1-thioxoisoindolin-2-yl)piperidine-2,6-dione]									B (80%< substrate protein remaining %≤ 100%)	B (80%< substrate protein remaining %≤ 100%)	A (0% ≤ substrate protein remaining % ≤ 80%)	B (80%< substrate protein remaining %≤ 100%)	B (80%< substrate protein remaining %≤ 100%)	B (80%< substrate protein remaining %≤ 100%)

Source: patent EP4745135A1 (Gluetacs Therapeutics (Shanghai) Co., Ltd., priority 2023, dated 2025)
